This note sets out measurements from patent US7906530B2, “1,7-naphthyridine derivatives as p38 MAP kinase inhibitors” (Laboratorios Almirall, S.A., priority 2006, dated 2011).

In test [1] the test system is TNFα production in human monocytic cell line THP-1. The test can be described thus: Functional assay: inhibition of LPS-induced TNFα production in THP-1 cells. The format is cell-based. Conditions: LPS 10 μg/ml, 5 h at 37° C., TNFα ELISA. Background: ELISA stands for enzyme-linked immunosorbent assay.
Test [2] deals with T1, human p38alfa (SAPKa) enzyme (Homo sapiens, UniProt Q16539).
T1 construct: purchased University of Dundee
The test can be described thus: p38alpha enzymatic inhibition assay (FRET, ATF2 phosphorylation). The format is biochemical. To be noted: 1 h pre-incubation; biotinylated ATF2 0.62 μM, ATP 60 μM; 1 h at 25° C.; read-out: p38α IC50.

As usually defined, the IC50 is the concentration that inhibits the measured activity by half.

T1 sequence (Q16539 whole entry): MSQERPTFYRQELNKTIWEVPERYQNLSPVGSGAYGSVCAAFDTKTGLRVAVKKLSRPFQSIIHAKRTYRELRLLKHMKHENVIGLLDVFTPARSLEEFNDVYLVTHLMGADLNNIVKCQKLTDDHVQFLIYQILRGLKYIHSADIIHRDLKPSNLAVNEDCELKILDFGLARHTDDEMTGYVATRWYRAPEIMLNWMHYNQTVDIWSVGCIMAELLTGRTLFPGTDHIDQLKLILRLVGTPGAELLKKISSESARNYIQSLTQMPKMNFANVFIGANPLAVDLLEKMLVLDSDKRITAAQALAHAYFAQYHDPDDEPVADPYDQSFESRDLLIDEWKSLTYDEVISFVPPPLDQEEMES

`[O-][n+]1ccc2c(-c3ccc(F)cc3F)ccnc2c1-c1c(F)cccc1F` [Example 19, 4-(2,4-Difluorophenyl)-8-(2,6-difluorophenyl)-1,7-naphthyridine 7-oxide]: the IC50 in test [1] was determined as 223 nM.

Consider `[O-][n+]1ccc2c(-c3ccc(F)cc3F)cc(C3CCNCC3)nc2c1-c1c(F)cccc1F` [Example 29, 4-(2,4-Difluorophenyl)-8-(2,6-difluorophenyl)-2-piperidin-4-yl-1,7-naphthyridine 7-oxide], for which the figures for the IC50 in test [1] and in test [2] were 2.45 nM and 0.9 nM, respectively.

In the case of `CC(C)(C)N1CCC(c2cc(-c3ccc(F)cc3F)c3cc[n+]([O-])c(-c4c(F)cccc4F)c3n2)CC1` [Example 35, 2-(1-Tert-butylpiperidin-4-yl)-4-(2,4-difluorophenyl)-8-(2,6-difluorophenyl)-1,7-naphthyridine 7-oxide], the values for the IC50 in test [1] and in test [2] were 3.4 nM and 2.8 nM, respectively.

As for `CC(C)(C)N1CCC(c2cc(-c3ccc(F)cc3F)c3cc[n+]([O-])c(-c4c(Cl)cccc4Cl)c3n2)CC1` [Example 36, 2-(1-Tert-butylpiperidin-4-yl)-8-(2,6-dichlorophenyl)-4-(2,4-difluorophenyl)-1,7-naphthyridine 7-oxide], the values for the IC50 in test [1] and in test [2] were 1.6 nM and 1.2 nM, respectively.

Regarding `[O-][n+]1ccc2c(-c3ccc(F)cc3Cl)ccnc2c1-c1c(F)cccc1F` [Example 39, 4-(2-Chloro-4-fluorophenyl)-8-(2,6-difluorophenyl)-1,7-naphthyridine 7-oxide], the IC50 in test [1] is 63 nM; in test [2] it was 87 nM.

The compound `[O-][n+]1ccc2c(-c3ccc(F)cc3Cl)ccnc2c1-c1c(Cl)cccc1Cl` [Example 40, 4-(2-Chloro-4-fluorophenyl)-8-(2,6-dichlorophenyl)-1,7-naphthyridine 7-oxide] yielded a half-maximal inhibitory concentration (IC50) in test [1] of 43.5 nM.

As for `[O-][n+]1ccc2c(-c3ccc(F)cc3Cl)cc(C3CCNCC3)nc2c1-c1c(Cl)cccc1Cl` [Example 43, 4-(2-Chloro-4-fluorophenyl)-8-(2,6-dichlorophenyl)-2-piperidin-4-yl-1,7-naphthyridine 7-oxide], the IC50 in test [1] amounted to 2.9 nM.

Regarding `CC(C)(C)N1CCC(c2cc(-c3ccc(F)cc3Cl)c3cc[n+]([O-])c(-c4c(F)cccc4F)c3n2)CC1` [Example 48, 2-(1-Tert-butylpiperidin-4-yl)-4-(2-chloro-4-fluorophenyl)-8-(2,6-difluorophenyl)-1,7-naphthyridine 7-oxide], the values for the IC50 in test [1] and in test [2] were 3 nM and 1.6 nM, respectively.

`CC(C)(C)N1CCC(c2cc(-c3ccc(F)cc3Cl)c3cc[n+]([O-])c(-c4c(Cl)cccc4Cl)c3n2)CC1` [Example 49, 2-(1-Tert-butylpiperidin-4-yl)-4-(2-chloro-4-fluorophenyl)-8-(2,6-dichlorophenyl)-1,7-naphthyridine 7-oxide]: the IC50 in test [1] is 0.46 nM.

`[O-][n+]1ccc2c(-c3ccccc3Cl)cc(C3CCNCC3)nc2c1-c1c(F)cccc1F` [Example 52, 4-(2-Chlorophenyl)-8-(2,6-difluorophenyl)-2-piperidin-4-yl-1,7-naphthyridine 7-oxide] gave an IC50 in test [1] of 4.2 nM.

As for `[O-][n+]1ccc2c(-c3ccccc3Cl)cc(C3CCNCC3)nc2c1-c1c(Cl)cccc1Cl` [Example 53, 4-(2-Chlorophenyl)-8-(2,6-dichlorophenyl)-2-piperidin-4-yl-1,7-naphthyridine 7-oxide], the IC50 is 0.53 nM in test [1] and 0.34 nM in test [2].

Consider `CC(C)(C)N1CCC(c2cc(-c3ccccc3Cl)c3cc[n+]([O-])c(-c4c(Cl)cccc4Cl)c3n2)CC1` [Example 59, 2-(1-Tert-butylpiperidin-4-yl)-4-(2-chlorophenyl)-8-(2,6-dichlorophenyl)-1,7-naphthyridine 7-oxide], for which the IC50 in test [1] turned out to be 0.1 nM; in test [2], 0.41 nM.

Consider `[O-][n+]1ccc2c(-c3ccc(F)cc3F)cc(NC3CCNCC3)nc2c1-c1c(Cl)cccc1Cl` [Example 86, 8-(2,6-Dichlorophenyl)-4-(2,4-difluorophenyl)-N-piperidin-4-yl-1,7-naphthyridin-2-amine 7-oxide], for which the IC50 in test [1] was found to be 0.9 nM; in test [2] it was 0.37 nM.

Consider `[O-][n+]1ccc2c(-c3ccc(F)cc3F)cc(N3CCNCC3)nc2c1-c1c(Cl)cccc1Cl` [Example 90, 8-(2,6-Dichlorophenyl)-4-(2,4-difluorophenyl)-2-piperazin-1-yl-1,7-naphthyridine 7-oxide], for which the IC50 was determined as 0.8 nM in test [1] and 1.1 nM in test [2].

For the compound `[O-][n+]1ccc2c(-c3ccc(F)cc3F)cc(N3CCNCC3)nc2c1-c1c(F)cccc1F` [Example 91, 4-(2,4-Difluorophenyl)-8-(2,6-difluorophenyl)-2-piperazin-1-yl-1,7-naphthyridine 7-oxide], the IC50 in test [1] is 4.1 nM.

For the compound `[O-][n+]1ccc2c(-c3ccc(F)cc3F)cc(OC3CCNCC3)nc2c1-c1c(Cl)cccc1Cl` [Example 95, 8-(2,6-Dichlorophenyl)-4-(2,4-difluorophenyl)-2-(piperidin-4-yloxy)-1,7-naphthyridine 7-oxide], the IC50 in test [1] worked out at 0.2 nM; in test [2], 0.92 nM.

In the case of `[O-][n+]1ccc2c(-c3ccc(F)cc3F)cc(OC3CCNCC3)nc2c1-c1c(F)cccc1F` [Example 96, 4-(2,4-Difluorophenyl)-8-(2,6-difluorophenyl)-2-(piperidin-4-yloxy)-1,7-naphthyridine 7-oxide], the half-inhibitory concentration (IC50) in test [1] is 3.2 nM; in test [2], 0.22 nM.
